Results as given in US8044079B2, “Substituted oxindole derivatives, medicaments containing said derivatives and use thereof” (Abbott GmbH & Co. KG, priority 2005, dated 2011).

Target: T1, human vasopressin V1b receptor (Homo sapiens, UniProt P47901)
T1 construct: expressed in transfected cells; host or cells: CHO-K1 (cell line hV1b_3H2_CHO), membrane preparation
T1 sequence (P47901 1-424): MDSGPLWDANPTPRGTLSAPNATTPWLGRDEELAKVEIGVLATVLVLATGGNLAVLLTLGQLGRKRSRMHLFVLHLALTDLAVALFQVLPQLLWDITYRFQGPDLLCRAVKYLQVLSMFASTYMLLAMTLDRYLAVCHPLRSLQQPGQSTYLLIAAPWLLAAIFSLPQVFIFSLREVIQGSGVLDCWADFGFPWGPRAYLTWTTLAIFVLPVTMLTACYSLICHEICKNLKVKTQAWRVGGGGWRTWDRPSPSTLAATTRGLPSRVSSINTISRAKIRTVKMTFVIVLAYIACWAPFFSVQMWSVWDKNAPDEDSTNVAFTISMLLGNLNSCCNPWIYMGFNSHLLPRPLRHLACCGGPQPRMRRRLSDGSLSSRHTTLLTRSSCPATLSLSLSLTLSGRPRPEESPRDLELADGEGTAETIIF
Assay: Vasopressin V1b receptor binding test
Settings: membranes of CHO-K1 cells with human V1b receptor, displacement of 1.5 nM 3H-AVP; for compounds with more than one stereogenic center the diastereomer with greater affinity
Method: Vasopressin V1b Receptor Binding Test:
The test substances were dissolved at a concentration of 10^−2 M in DMSO, and were further diluted to 5×10^−4 M to 5×10^−9 M in DMSO. This DMSO predilution series was diluted 1:10 with test buffer. In the test assay the substance concentration was further diluted to 1:5 (2% DMSO in the assay).
The membrane pellet was homogenized again as described and centrifuged, and was then taken up in 50 mM tris-HCl at pH 7.4, homogenized, and frozen in aliquots at −190° C. and stored in liquid nitrogen.
The incubation buffer was 50 mM tris, 10 mM MgCl2, and 0.1% BSA at pH 7.4. […] The nonspecific binding was determined using 1 μM AVP (Bachem #H1780). All determinations were performed in triplicate. After incubation (60 minutes at room temperature), the free radioligand was filtered off by vacuum filtration (Skatron 7000 cell harvester) through Wathman GF/B fiberglass filter mats, and the filters were transferred to scintillation vessels. The liquid scintillation measurement was conducted in a Model 2000 or 2200CA TriCarb unit (Packard). The measured cpm was converted to dpm using a standard quench series.
The binding parameters were calculated by nonlinear regression in SAS.
The affinities of the compounds according to the invention for human vasopressin receptor V1b were measured according to the above test, and the affinity constants (Ki) were determined.

Ki [nM]	Molecule
< 10	COc1ccc(S(=O)(=O)N2C(=O)C(c3cc(CN4CCN(C)CC4)ccc3OC)(N3CCC[C@H]3c3ncco3)c3cc(Cl)ccc32)cc1 (single isomer, unassigned) [Example 1]
< 10	COc1ccc(S(=O)(=O)N2C(=O)C(c3cc(CN4CCC4)ccc3OC)(N3CCC[C@H]3c3ncco3)c3cc(Cl)ccc32)cc1 (single isomer, unassigned) [Example 12]
< 10	COc1ccc(S(=O)(=O)N2C(=O)C(c3cc(CN4CCN(C)CC4)ccc3OC)(N3C[C@H](O)C[C@H]3c3ncco3)c3cc(C#N)ccc32)cc1 (single isomer, unassigned) [Example 149]
10 to 100	COc1ccc(S(=O)(=O)N2C(=O)C(c3cc(CO)ccc3OC)(N3CCC[C@H]3c3ncco3)c3cc(Cl)ccc32)cc1 (stereo partly drawn) [Example 2, 5-Chloro-3-(5-hydroxymethyl-2-methoxyphenyl)-1-(4-methoxybenzenesulfonyl)-3-((S)-2-oxazol-2-yl-pyrrolidin-1-yl)-1,3-dihydroindol-2-one]
< 10	CNCc1ccc(OC)c(C2(N3CCC[C@H]3c3ncco3)C(=O)N(S(=O)(=O)c3ccc(OC)cc3)c3ccc(Cl)cc32)c1 (stereo partly drawn) [Example 3, 5-Chloro-1-(4-methoxybenzenesulfonyl)-3-(2-methoxy-5-methylaminomethylphenyl)-3-((S)-2-oxazol-2-yl-pyrrolidin-1-yl)-1,3-dihydroindol-2-one]
< 10	COc1ccc(S(=O)(=O)N2C(=O)C(c3cc(CN(C)C)ccc3OC)(N3CCC[C@H]3c3ncco3)c3cc(Cl)ccc32)cc1 (stereo partly drawn) [Example 4, 5-Chloro-3-(5-dimethylaminomethyl-2-methoxyphenyl)-1-(4-methoxybenzenesulfonyl)-3-((S)-2-oxazol-2-yl-pyrrolidin-1-yl)-1,3-dihydroindol-2-one]
< 10	CCNCc1ccc(OC)c(C2(N3CCC[C@H]3c3ncco3)C(=O)N(S(=O)(=O)c3ccc(OC)cc3)c3ccc(Cl)cc32)c1 (stereo partly drawn) [Example 5, 5-Chloro-3-(5-ethylaminomethyl-2-methoxyphenyl)-1-(4-methoxybenzenesulfonyl)-3-((S)-2-oxazol-2-yl-pyrrolidin-1-yl)-1,3-dihydroindol-2-one]
< 10	CCN(C)Cc1ccc(OC)c(C2(N3CCC[C@H]3c3ncco3)C(=O)N(S(=O)(=O)c3ccc(OC)cc3)c3ccc(Cl)cc32)c1 (stereo partly drawn) [Example 6, 5-Chloro-3-{5-[(ethylmethylamino)methyl]-2-methoxyphenyl}-1-(4-methoxybenzenesulfonyl)-3-((S)-2-oxazol-2-yl-pyrrolidin-1-yl)-1,3-dihydroindol-2-one]
< 10	CCN(CC)Cc1ccc(OC)c(C2(N3CCC[C@H]3c3ncco3)C(=O)N(S(=O)(=O)c3ccc(OC)cc3)c3ccc(Cl)cc32)c1 (stereo partly drawn) [Example 7, 5-Chloro-3-(5-diethylaminomethyl-2-methoxyphenyl)-1-(4-methoxybenzenesulfonyl)-3-((S)-2-oxazol-2-yl-pyrrolidin-1-yl)-1,3-dihydroindol-2-one]
< 10	COc1ccc(S(=O)(=O)N2C(=O)C(c3cc(CNC(C)C)ccc3OC)(N3CCC[C@H]3c3ncco3)c3cc(Cl)ccc32)cc1 (stereo partly drawn) [Example 8, 5-Chloro-3-[5-(isopropylaminomethyl)-2-methoxyphenyl]-1-(4-methoxybenzenesulfonyl)-3-((S)-2-oxazol-2-yl-pyrrolidin-1-yl)-1,3-dihydroindol-2-one]
< 10	COc1ccc(S(=O)(=O)N2C(=O)C(c3cc(CN(C)C(C)C)ccc3OC)(N3CCC[C@H]3c3ncco3)c3cc(Cl)ccc32)cc1 (stereo partly drawn) [Example 9, 5-Chloro-3-{5-[(isopropylmethylamino)methyl]-2-methoxyphenyl}-1-(4-methoxybenzenesulfonyl)-3-((S)-2-oxazol-2-yl-pyrrolidin-1-yl)-1,3-dihydroindol-2-one]
< 10	COc1ccc(S(=O)(=O)N2C(=O)C(c3cc(CNCCO)ccc3OC)(N3CCC[C@H]3c3ncco3)c3cc(Cl)ccc32)cc1 (stereo partly drawn) [Example 10, 5-Chloro-3-{5-[(2-hydroxyethylamino)methyl]-2-methoxyphenyl}-1-(4-methoxybenzenesulfonyl)-3-((S)-2-oxazol-2-yl-pyrrolidin-1-yl)-1,3-dihydroindol-2-one]
< 10	COc1ccc(S(=O)(=O)N2C(=O)C(c3cc(CN4CCNCC4)ccc3OC)(N3CCC[C@H]3c3ncco3)c3cc(Cl)ccc32)cc1 (stereo partly drawn) [Example 11, 5-Chloro-1-(4-methoxybenzenesulfonyl)-3-(2-methoxy-5-piperazin-1-ylmethylphenyl)-3-((S)-2-oxazol-2-yl-pyrrolidin-1-yl)-1,3-dihydroindol-2-one]
< 10	COc1ccc(S(=O)(=O)N2C(=O)C(c3cc(CN4CCCC4)ccc3OC)(N3CCC[C@H]3c3ncco3)c3cc(Cl)ccc32)cc1 (stereo partly drawn) [Example 13, 5-Chloro-1-(4-methoxybenzenesulfonyl)-3-(2-methoxy-5-pyrrolidin-1-ylmethylphenyl)-3-((S)-2-oxazol-2-yl-pyrrolidin-1-yl)-1,3-dihydroindol-2-one]
< 10	COc1ccc(S(=O)(=O)N2C(=O)C(c3cc(CN4CCCCC4)ccc3OC)(N3CCC[C@H]3c3ncco3)c3cc(Cl)ccc32)cc1 (stereo partly drawn) [Example 14, 5-Chloro-1-(4-methoxybenzenesulfonyl)-3-(2-methoxy-5-piperidin-1-ylmethylphenyl)-3-((S)-2-oxazol-2-yl-pyrrolidin-1-yl)-1,3-dihydroindol-2-one]
10 to 100	COc1ccc(S(=O)(=O)N2C(=O)C(c3ccc(CO)cc3OC)(N3CCC[C@H]3c3ncco3)c3cc(Cl)ccc32)cc1 (stereo partly drawn) [Example 15, 5-Chloro-3-(4-hydroxymethyl-2-methoxyphenyl)-1-(4-methoxybenzenesulfonyl)-3-((S)-2-oxazol-2-yl-pyrrolidin-1-yl)-1,3-dihydroindol-2-one]
< 10	CNCc1ccc(C2(N3CCC[C@H]3c3ncco3)C(=O)N(S(=O)(=O)c3ccc(OC)cc3)c3ccc(Cl)cc32)c(OC)c1 (stereo partly drawn) [Example 16, 5-Chloro-1-(4-methoxybenzenesulfonyl)-3-(2-methoxy-4-methylaminomethylphenyl)-3-((S)-2-oxazol-2-yl-pyrrolidin-1-yl)-1,3-dihydroindol-2-one]
< 10	COc1ccc(S(=O)(=O)N2C(=O)C(c3ccc(CN(C)C)cc3OC)(N3CCC[C@H]3c3ncco3)c3cc(Cl)ccc32)cc1 (stereo partly drawn) [Example 17, 5-Chloro-3-(4-dimethylaminomethyl-2-methoxyphenyl)-1-(4-methoxybenzenesulfonyl)-3-((S)-2-oxazol-2-yl-pyrrolidin-1-yl)-1,3-dihydroindol-2-one]
< 10	CCN(C)Cc1ccc(C2(N3CCC[C@H]3c3ncco3)C(=O)N(S(=O)(=O)c3ccc(OC)cc3)c3ccc(Cl)cc32)c(OC)c1 (stereo partly drawn) [Example 18, 5-Chloro-3-{4-[(ethylmethylamino)methyl]-2-methoxyphenyl}-1-(4-methoxybenzenesulfonyl)-3-((S)-2-oxazol-2-yl-pyrrolidin-1-yl)-1,3-dihydroindol-2-one]
< 10	CCN(CC)Cc1ccc(C2(N3CCC[C@H]3c3ncco3)C(=O)N(S(=O)(=O)c3ccc(OC)cc3)c3ccc(Cl)cc32)c(OC)c1 (stereo partly drawn) [Example 19, 5-Chloro-3-(4-diethylaminomethyl-2-methoxyphenyl)-1-(4-methoxybenzenesulfonyl)-3-((S)-2-oxazol-2-yl-pyrrolidin-1-yl)-1,3-dihydroindol-2-one]
< 10	CCCNCc1ccc(C2(N3CCC[C@H]3c3ncco3)C(=O)N(S(=O)(=O)c3ccc(OC)cc3)c3ccc(Cl)cc32)c(OC)c1 (stereo partly drawn) [Example 20, 5-Chloro-1-(4-methoxybenzenesulfonyl)-3-(2-methoxy-4-propylaminomethylphenyl)-3-((S)-2-oxazol-2-yl-pyrrolidin-1-yl)-1,3-dihydroindol-2-one]
< 10	COc1ccc(S(=O)(=O)N2C(=O)C(c3ccc(CN(C)C(C)C)cc3OC)(N3CCC[C@H]3c3ncco3)c3cc(Cl)ccc32)cc1 (stereo partly drawn) [Example 21, 5-Chloro-3-{4-[(isopropylmethylamino)methyl]-2-methoxyphenyl}-1-(4-methoxybenzenesulfonyl)-3-((S)-2-oxazol-2-yl-pyrrolidin-1-yl)-1,3-dihydroindol-2-one]

Molecule	Ki [nM]
5-Chloro-1-(4-cyanobenzenesulfonyl)-3-{4-[(2-hydroxyethylamino)methyl]-2-methoxyphenyl}-3-((2S,4R)-4-hydroxy-2-oxazol-2-yl-pyrrolidin-1-yl)-2,3-dihydroindol-2-one [Example 196]	10 to 100
